Values of other authors, collected in patent US20060222709A1 (AGI Therapeutics Research Ltd., priority 2005, published 2006).
Blank lines part the entries; values can stand above or below the molecule they belong to.

What was measured:
[1] = system: patients with chronic constipation; details: two trials
[2] = system: women patients with IBS-C; details: 6 mg twice daily

Compound: OC[C@H]1O[C@@H](O[C@@H]2[C@@H](CO)OC(O)(CO)[C@H]2O)[C@H](O)[C@@H](O)[C@H]1O (mixture of isomers) [lactulose]
stool frequency and consistency versus placebo [1]: more effective than placebo

prevalence of diarrhea (treated diabetes patients (Bytzer 2001)): 20%
Compound: CN(C)C(=N)N=C(N)N [metformin, dimethylbiguanide]
acute, reversible adverse effects, mainly of gastrointestinal tract origin, patients affected (human, in vivo): up to 20%

Compound: CCCCCNC(=N)N/N=C/c1c[nH]c2ccc(OC)cc12.O=C(O)/C=C\C(=O)O [tegaserod, 3-(5-methoxy-1H-indol-3-ylmethylene)-N-pentylcarbazimidamide hydrogen maleate]
global and individual symptoms [2]: effectively improves global and individual symptoms
